Data taken from publication PMC11923649, “Novel C-2 Aromatic Heterocycle-Substituted Triterpenoids Inhibit Hedgehog Signaling in GLI1 Overexpression Cancer Cells” (ACS Omega, 2025).

Tests used:
U2OS = assay: MTS cytotoxicity assay, 72 h, U2OS; format: cell-based; conditions: Homo sapiens
Protocol: (§1) Based on the preliminary results and tests of a larger library of known triterpenoids, a small set of 2-substituted lupane and 18α-oleanane derivatives was designed and synthesized. As the first step, the cytotoxic activity of the synthesized derivatives was assessed using an MTS assay following 72 h of treatment (Table 1). Selected cell lines A549 (lung adenocarcinoma) and DU-145 (prostate cancer) are both dependent on Hh signaling. In addition, K562 (chronic myelogenous leukemia) was included as a cell line sensitive to Hh inhibitors[32] and a type of hematological malignancy with active Hh signaling.[33] MRC-5 lung fibroblasts and BJ human skin fibroblasts cell lines were used to evaluate the toxicity against nontumor cells. Compounds were also tested using the standard panel of other cancer cell lines, as described in our earlier work (Table 1).[27]
(§2) The human prostate tumor-derived cell line DU145 was obtained from ATCC (American Type Culture Collection) and cultured in RPMI 1640 (Roswell Park Memorial Institute) medium supplemented with 10% (v/v) fetal bovine serum (FBS). Human prostate tumor-derived LNCaP cells were obtained from ATCC and cultured in RPMI 1640 medium supplemented with 10% FBS. The human nonsmall cell lung carcinoma (NSCLC)-derived cell line HOP-62 was obtained from the DSMZ (German Collection of Microorganisms and Cell Cultures) and cultured in RPMI 1640 medium supplemented with 10% FBS. The human nonsmall cell lung carcinoma-derived cell line NCI-H322 was obtained from ECACC (European Collection of Authenticated Cell Cultures) and cultured in RPMI 1640 medium supplemented with 10% FBS. The human nonsmall cell lung carcinoma-derived cell line NCI-H522 was obtained from ATCC and cultured in RPMI 1640 medium supplemented with 10% FBS. The human lung tumor-derived cell line A549 was obtained from ATCC and cultured in Dulbecco’s Modified Eagle’s Medium (DMEM) supplemented with 10% FBS. The human medulloblastoma-derived cell line DAOY was obtained from ATCC and cultured in Eagle’s Minimum Essential Medium (EMEM) supplemented with 10% FBS. The human glioblastoma-derived cell line T98G was obtained from ATCC and cultured in EMEM medium supplemented with 10% FBS, 1 mmol/L sodium pyruvate, and 1 mmol/L nonessential amino acid mixture. All the above-mentioned cell lines were cultured at 37 °C in an atmosphere of 5% CO2 with 95% humidity. The cytotoxicity MTS assays were performed using MTS (3-(4,5-dimethylthiazol-2-yl)-5-(3-carboxymethoxyphenyl)-2-(4-sulfophenyl)-2H-tetrazolium) tetrazolium salt. Briefly, cells were seeded in a 384-well transparent plate in a volume of 25 μL and a concentration of 15,000 cells/mL (DU145, LNCaP, HOP-62, A549, DAOY, T98G) or 30,000 cells/mL (NCI-H322, NCI-H522). The next day, cells were exposed to compounds in a concentration range of 50–0.0975 μmol/L (dilution factor 2) and cultured in the presence of the compounds for 72 h. After 72 h, 5 μL of MTS/phenazine methosulfate solution was pipetted into each well and incubation continued for 1–4 h. Finally, the absorbance at 490 nm was measured using an EnVision multifunctional modular reader (PerkinElmer). The IC50 value was determined using Dotmatics software.

[1] = test system: A549 (lung adenocarcinoma); assay: MTS cytotoxicity assay, 72 h, A549; format: cell-based; conditions: Homo sapiens, A549, 72 h
Protocol: as §1, §2

HCT 116 = assay: MTS cytotoxicity assay, 72 h, HCT 116; format: cell-based; conditions: Homo sapiens, HCT-116, 72 h
Protocol: as §1, §2

HCT116 p53–/– = assay: MTS cytotoxicity assay, 72 h, HCT116 p53–/–; format: cell-based; conditions: Homo sapiens, HCT-116, 72 h
Protocol: as §1, §2

CEM-DNR = assay: MTS cytotoxicity assay, 72 h, CEM-DNR; format: cell-based; conditions: Homo sapiens
Protocol: as §1, with “1).[27] […]” for “1).[27]”

[2] = test system: K562 (chronic myelogenous leukemia); assay: MTS cytotoxicity assay, 72 h, K562; format: cell-based; conditions: Homo sapiens
Protocol: as §1, §2

MRC-5 lung fibroblasts = assay: MTS cytotoxicity assay, 72 h, MRC-5 fibroblasts; format: cell-based, human; conditions: Homo sapiens, MRC5, 72 h, normal fibroblasts
Protocol: as §1, §2

DU-145 (prostate cancer) = assay: MTS cytotoxicity assay, 72 h, DU-145; format: cell-based, human; conditions: Homo sapiens, DU-145, 72 h
Protocol: as §1, §2

CCRF-CEM = assay: MTS cytotoxicity assay, 72 h, CCRF-CEM; format: cell-based; conditions: for IC50: Homo sapiens, CCRF-CEM, 72 h, MTS
Protocol: as §1, §2

[3] = test system: BJ human skin fibroblasts; assay: MTS cytotoxicity assay, 72 h, BJ fibroblasts; format: cell-based; conditions: Homo sapiens, Skin fibroblast, normal fibroblasts
Protocol: as §1, §2

K562-TAX = assay: MTS cytotoxicity assay, 72 h, K562-TAX; format: cell-based
Protocol: as §1, §2

[4] = CCRF-CEM vs average of BJ and MRC-5, full Table S1

Row | SMILES | IC50 (U2OS; Table 1) | IC50 ([1]; Table 1) | IC50 (HCT 116; Table 1) | IC50 (HCT116 p53–/–; Table 1) | IC50 (CEM-DNR; Table 1) | IC50 (CEM-DNR; full Table S1) | IC50 ([2]; Table 1) | IC50 (MRC-5 lung fibroblasts; Table 1) | IC50 (DU-145 (prostate cancer); Table 1) | IC50 (U2OS; full Table S1) | IC50 ([1]; full Table S1) | IC50 (HCT 116; full Table S1) | IC50 (HCT116 p53–/–; full Table S1) | IC50 ([2]; full Table S1) | IC50 (MRC-5 lung fibroblasts; full Table S1) | IC50 (DU-145 (prostate cancer); full Table S1) | SI (selectivity index) (CCRF-CEM; [4]) | IC50 (CCRF-CEM; full Table S1) | IC50 ([3]; full Table S1) | IC50 (K562-TAX; full Table S1) | other results
1 | CC1(C)C(=O)C(c2cncnc2)=C[C@@]2(C)C1CC[C@]1(C)C2CCC2C3[C@H]4OC[C@@]3(CCC4(C)C)CC[C@]21C (stereo partly drawn) [Compound 4i, 2-(Pyrimidin-5-yl)-19β,28-epoxyolean-1-en-3-one] | > 50 µM | > 50 µM | > 50 µM | > 50 µM | 27 µM | 27.4 µM | > 50 µM | > 50 µM | > 50 µM |  |  |  |  |  |  |  |  |  |  |  | IC50 (CCRF-CEM; Table 1): > 50 µM; IC50 ([3]; Table 1): > 50 µM; IC50 (K562-TAX; Table 1): > 50 µM
2 | CC1(C)C(=O)C(c2ccc3c(c2)OCCO3)=C[C@@]2(C)C1CC[C@]1(C)C2CCC2C3[C@H]4OC[C@@]3(CCC4(C)C)CC[C@]21C (stereo partly drawn) [Compound 4j, 2-(1,4-Benzodioxan-6-yl)-19β,28-epoxyolean-1-en-3-one] |  |  |  |  |  | > 50 µM |  |  |  | > 50 µM | > 50 µM | > 50 µM | > 50 µM | > 50 µM | > 50 µM | > 50 µM | > 1.0 | > 50 µM | > 50 µM | > 50 µM | 
3 | CC1(C)C(=O)C(c2cc3ccccc3s2)=C[C@@]2(C)C1CC[C@]1(C)C2CCC2C3[C@H]4OC[C@@]3(CCC4(C)C)CC[C@]21C (stereo partly drawn) [Compound 4k, 2-(Benzo[b]thien-2-yl)-19β,28-epoxyolean-1-en-3-one] |  |  |  |  |  | > 50 µM |  |  |  | > 50 µM | > 50 µM | > 50 µM | > 50 µM | > 50 µM | > 50 µM | > 50 µM | > 1.0 | > 50 µM | > 50 µM | > 50 µM | 
4 | CC1(C)C(=O)C(c2cncc3ccccc23)=C[C@@]2(C)C1CC[C@]1(C)C2CCC2C3[C@H]4OC[C@@]3(CCC4(C)C)CC[C@]21C (stereo partly drawn) [Compound 4l, 2-(Isoquinolin-4-yl)-19β,28-epoxyolean-1-en-3-one] | > 50 µM | > 50 µM | > 50 µM | > 50 µM | > 50 µM |  | > 50 µM | > 50 µM | 32 µM |  |  |  |  |  |  | 32.1 µM |  |  |  |  | IC50 (CCRF-CEM; Table 1): > 50 µM; IC50 ([3]; Table 1): > 50 µM; IC50 (K562-TAX; Table 1): > 50 µM
5 | CC1(C)C(=O)C(c2ccc3[nH]ccc3c2)=C[C@@]2(C)C1CC[C@]1(C)C2CCC2C3[C@H]4OC[C@@]3(CCC4(C)C)CC[C@]21C (stereo partly drawn) [Compound 4m, 2-(Indol-5-yl)-19β,28-epoxyolean-1-en-3-one] | > 50 µM | > 50 µM | > 50 µM | > 50 µM | > 50 µM |  | > 50 µM | > 50 µM | 26 µM |  |  |  |  |  |  | 25.8 µM |  | 26.1 µM |  |  | IC50 (CCRF-CEM; Table 1): 26 µM; SI (selectivity index) (CCRF-CEM; IC50 of CCRF-CEM line vs average of both fibroblasts (BJ and MRC-5), Table 1): >1.9; IC50 ([3]; Table 1): > 50 µM; IC50 (K562-TAX; Table 1): > 50 µM
6 | C=C(C)[C@@H]1CC[C@]2(C(=O)OCc3ccccc3)CC[C@]3(C)C(CCC4[C@@]5(C)C=C(c6ccco6)C(=O)C(C)(C)C5CC[C@]43C)C12 (some centres unmarked) [Compound 10a, Benzyl 2-(2-Furanyl)-3-oxolupa-1,20(29)-dien-28-oate] |  |  |  |  |  | > 50 µM |  |  |  | > 50 µM | > 50 µM | > 50 µM | > 50 µM | > 50 µM | > 50 µM | > 50 µM | > 1.0 | > 50 µM | > 50 µM | > 50 µM | 
7 | C=C(C)[C@@H]1CC[C@]2(C(=O)OCc3ccccc3)CC[C@]3(C)C(CCC4[C@@]5(C)C=C(c6ccoc6)C(=O)C(C)(C)C5CC[C@]43C)C12 (some centres unmarked) [Compound 10b, Benzyl 2-(3-Furanyl)-3-oxolupa-1,20(29)-dien-28-oate] |  |  |  |  |  | > 50 µM |  |  |  | > 50 µM | > 50 µM | > 50 µM | > 50 µM | > 50 µM | > 50 µM | > 50 µM | > 1.0 | > 50 µM | > 50 µM | > 50 µM | 
8 | C=C(C)[C@@H]1CC[C@]2(C(=O)OCc3ccccc3)CC[C@]3(C)C(CCC4[C@@]5(C)C=C(c6cccs6)C(=O)C(C)(C)C5CC[C@]43C)C12 (some centres unmarked) [Compound 10c, Benzyl 2-(2-Thiophenyl)-3-oxolupa-1,20(29)-dien-28-oate] |  |  |  |  |  | > 50 µM |  |  |  | > 50 µM | > 50 µM | > 50 µM | > 50 µM | > 50 µM | > 50 µM | > 50 µM | > 1.0 | > 50 µM | > 50 µM | > 50 µM | 
9 | C=C(C)[C@@H]1CC[C@]2(C(=O)OCc3ccccc3)CC[C@]3(C)C(CCC4[C@@]5(C)C=C(c6ccsc6)C(=O)C(C)(C)C5CC[C@]43C)C12 (some centres unmarked) [Compound 10d, Benzyl 2-(3-Thiophenyl)-3-oxolupa-1,20(29)-dien-28-oate] |  |  |  |  |  | > 50 µM |  |  |  | > 50 µM | > 50 µM | > 50 µM | > 50 µM | > 50 µM | > 50 µM | > 50 µM | > 1.0 | > 50 µM | > 50 µM | > 50 µM | 
